Measured values from patent publication US9279769B2, “Proteins that efficiently generate singlet oxygen” (The Regents of the University of California, priority 2010, dated 2016).

Columns and labels:
[1] = target: T1, Arabidopsis thaliana phototropin 2 (AtPhot2) LOV2 domain (residues 387-492) variant AtminiSOG0.2 (miniSOG0.2, miniSOG), 1387M/N390S/S394T/S409G/C426G/F470L, SEQ ID NO: 2 (Arabidopsis thaliana, UniProt P93025, C426G/F470L/N390S/S394T/S409G); assay: Equilibrium dialysis of miniSOG (FMN dissociation constant); format: binding
T1 construct: can be engineered into a small (106-residue) SOG; made in house
From the text: Mass spectrometry confirmed that the flavin cofactor is FMN. Equilibrium dialysis reported a dissociation constant of 170±8 pM (Table 2), similar to values for some flavoproteins (e.g., 260±60 pM for a flavodoxin [23]) and consistent with the crystal structures of LOV domains, which show FMN deeply buried inside the protein core.

flavodoxin = conditions: literature value for a flavodoxin [23]; read-out: dissociation constant; cited from earlier work
[2] = literature value; cited from earlier work
[3] = 1O2 quantum yield measured with ADPA as 1O2 sensor, FMN as standard; format: physicochemical; conditions: for 1O2 (singlet oxygen generation) quantum yield: ADPA sensor in PBS, illuminated at 480/30 nm, FMN standard
Protocol: (§1) FIG. 3. (A) Absorbance spectrum of miniSOG0.2 determined between 400 nm and 500 nm (B) Normalized absorbance (left) and emission (right) spectra of miniSOG0.2. The fluorescence quantum yield of miniSOG0.2 was determined to be 0.30. (C) ADPA degradation by miniSOG0.2. ADPA was mixed with miniSOG0.2 in PBS and illuminated at 480/30 nm. ADPA emission spectra taken after indicated illumination times. (D) Degradation of ADPA by illumination of miniSOG0.2 (▴) or free FMN (♦). Flavin mononucleotide (FMN) was used as the standard for the quantum yield measurement. The data represents one typical measurement. The averaged absorbance intensity of FMN and miniSOG0.2 in this measurement is 0.064 and 0.070 respectively in arbitrary units. Singlet-oxygen-generation quantum yield of miniSOG0.2 was determined to be 0.47±0.05 (from three independent measurements).
(§2) To increase the brightness of the C426G mutant, we also performed saturation mutagenesis of other residues surrounding the chromophore binding site. […] The ^1O2 quantum yield of miniSOG0.2 (0.47±0.05) was measured using anthracene-9,10-dipropionic acid (ADPA) as a ^1O2 sensor (FIG. 1E). Free FMN was used as the standard for the measurement of ^1O2 generation (quantum yield 0.51).

[4] = fluorescence quantum yield; format: physicochemical
Protocol: as §1
(§3) […] was synthesized by overlap extension PCR [48]. Genetic libraries were constructed by saturation and random mutagenesis and DNA shuffling. Mutants were fused to IFP1.4 by overlap extension PCR and cloned into a modified pBAD vector containing the heme oxygenase-1 gene from cyanobacteria. Libraries were expressed in E. coli strain TOP10 and screened by imaging the agar plates with colonies in the IFP channel before and after blue light illumination. Protein purification and spectroscopic characterization experiments were done as described.

[5] = absorbance spectrum, extinction coefficients; format: physicochemical
Protocol: as §2, §3

HEK293 cells [6] = assay: growth rate of HEK293 cells overexpressing the protein, no light; format: cell-based; conditions: for Cell number: HEK293 cells; for toxicity in the absence of light: overexpression in cells, no illumination
From the text: (§4) Feedback pathways involving enzymes such as riboflavin kinase (EC 2.7.1.26) and FAD (flavin adenine dinucleotide) diphosphatase (EC 3.6.1.18) probably regulate intracellular FMN to titrate endogenous flavoproteins and miniSOG [25]. Riboflavin kinase phosphorylates riboflavin into FMN, while FAD diphosphatase catalyzes the production of FMN from FAD.
DNA encoding miniSOG with codons optimized for mammals was synthesized by overlap extension PCR [48]. MiniSOG fusions were cloned into pcDNA3.1 vector. HEK293 and HeLa cells were transfected with miniSOG or chimera cDNAs using Fugene, then imaged 24-48 h later. Cultured cortical neurons were transfected by Amaxa electroporation (Lonza AG, Germany) and imaged 1-2 wk later.

HEK293 cells [7] = assay: FMN content of HEK293 cells after overexpression; format: cell-based; conditions: overexpression in HEK293 cells
From the text: as §4

Molecule: Cc1cc2nc3c(=O)[nH]c(=O)nc-3n(C[C@H](O)[C@H](O)[C@H](O)COP(=O)(O)O)c2cc1C [FMN, flavin mononucleotide]
- Kd ([1]; [apo] * [FMN]/[holo], equilibrium dialysis, dialysis time 24 hrs): 0.124 ± 0.0057 nM
- Kd ([1]; [apo] * [FMN]/[holo], equilibrium dialysis, dialysis time 48 hrs): 0.174 ± 0.0053 nM
- Kd ([1]; [apo] * [FMN]/[holo], equilibrium dialysis, dialysis time 72 hrs): 0.17 ± 0.0084 nM
- Kd ([1]; dissociation constant (binds endogenous FMN very tightly), summary statement): ~0.1 nM
- Kd ([1]; dissociation constant, equilibrium dialysis, FMN cofactor): 0.17 ± 0.008 nM
- Kd (flavodoxin): 0.26 ± 0.06 nM

Molecule: Cc1cc2nc3c(=O)[nH]c(=O)nc-3n(C[C@H](O)[C@H](O)[C@H](O)COP(=O)(O)O)c2cc1C [Free FMN, flavin mononucleotide]
- 1O2 quantum yield [2]: 0.51

Molecule: O=c1ccc2nc3ccc(O)c([As]4SCCS4)c3oc-2c1[As]1SCCS1 [ReAsH]
- 1O2 quantum yield [2]: 0.024

Molecule: CC1=NC(=Cc2ccc(O)cc2)C(=O)N1C [naked GFP chromophore]
- 1O2 quantum yield [2]: 0.004

Molecule: AtminiSOG0.2: 106-residue mutant of Arabidopsis thaliana phototropin 2 residues 387-492, 1387M/N390S/S394T/S409G/C426G/F470L, SEQ ID NO:2, binds FMN
- 1O2 quantum efficiency relative to ReAsH on a tetracysteine motif [3]: about 20 times
- 1O2 (singlet oxygen generation) quantum yield ([3]; listed as AtminiSOG): 0.47
- 1O2 (singlet oxygen generation) quantum yield ([3]; listed as miniSOG0.2): 0.47±0.05
- fluorescence quantum yield ([4]; listed as AtminiSOG): 0.30
- fluorescence quantum yield ([4]; listed as miniSOG): 0.37
- fluorescence quantum yield ([4]; listed as miniSOG0.2): 0.30
- extinction coefficient ([5]; at 448 nm): (16.7±0.7)×10^3 M^−1cm^−1
- extinction coefficient ([5]; at 448 nm, listed as AtminiSOG): 16,700 M^−1cm^−1
- extinction coefficient ([5]; at 473 nm): (13.6±0.5)×10^3 M^−1cm^−1
- extinction coefficient ([5]; at 473 nm, listed as AtminiSOG): 13,600 M^−1cm^−1
- Cell number (HEK293 cells [6]; Day 0, transfection efficiency >90%): 200 10^3
- Cell number (HEK293 cells [6]; Day 1, transfection efficiency >90%): 390 10^3
- Cell number (HEK293 cells [6]; Day 2, transfection efficiency >90%): 940 10^3
- toxicity in the absence of light (HEK293 cells [6]): no obvious toxicity
- toxicity in the absence of light (HEK293 cells [6]; listed as AtminiSOG): without any obvious toxicity
- increase of FMN content (HEK293 cells [7]): ~3 fold
